Experiments:
[1] = tested on: WI-38 lung cells; test: Apoptosis in normal cells; details: normal cell line
[2] = tested on: STAT3 DNA-binding activity in MDA-MB-231 cells; test: STAT3 DNA-binding activity in nuclear extracts; details: 24 hours treatment
[3] = tested on: HPDE cells; test: Western blot of cleaved caspase-3 in normal cells; details: concentrations as high as 10 µM; normal pancreatic cells
[4] = tested on: STAT1 DNA-binding activity in MDA-MB-231 cells; test: STAT1 DNA-binding activity in nuclear extracts; details: 24 hours treatment
[5] = tested on: STAT3 transcriptional activity in MDA-MB-231 cells; test: STAT3-dependent transcriptional luciferase assay; details: 24 hours of treatment
[6] = tested on: JAK2; test: HTScan JAK2 Kinase Assay; assay type: biochemical, human; details: 5 µM; over a DMSO control; P<0.05
[7] = tested on: P-STAT3 in PANC-1 pancreatic cancer cells; test: Western blot of P-STAT3; details: 2.5 and 5 µM, 24 hours
[8] = tested on: STAT3 DNA-binding activity in PANC-1 cells; test: STAT3 DNA-binding activity in nuclear extracts; details: 24 hours treatment
[9] = tested on: P-STAT3 in MDA-MB-231 breast cancer cells; test: Western blot of P-STAT3; details: 2.5 and 5 µM, 24 hours
[10] = tested on: MDA-MB-231 cells; test: Laminin-based cell invasion assay; details: 1 µM, 24 hours
[11] = tested on: MDA-MB-231 breast cancer cell line; test: Combinatorial effect with doxorubicin on cell viability; details: 100–400 nM doxorubicin with 5000 nM compound; p < 0.05 over either agent alone
[12] = tested on: MDA-MB-231 cells; test: Soft agar colony formation assay; details: MDA-MB-231, soft agar, two weeks
[13] = tested on: BdsMC bladder cells; test: Apoptosis in normal cells; details: normal cell line
[14] = tested on: HMEC cells; test: Western blot of cleaved caspase-3 in normal cells; details: concentrations as high as 10 µM; normal breast cells

SMILES | apoptosis [1] | STAT3 DNA-binding activity [2] | caspase-3 cleavage [3] | STAT1 DNA-binding activity [4] | luciferase activity [5] | reduction in JAK2 kinase activity [6] | levels of P-STAT3 [7] | STAT3 DNA-binding activity [8] | levels of P-STAT3 [9] | invasive capacity [10] | combination effect with doxorubicin on cell viability [11] | reduction of overall colony numbers over that of curcumin [12] | apoptosis [13] | caspase-3 cleavage [14]
COc1ccc(/C=C/C(=O)C(C)(C)C(=O)/C=C/c2ccc(OC)c(OC)c2)cc1OC [FLLL31] | no evidence of apoptosis | dropped sharply | unable to induce caspase-3 cleavage | slightly enhanced | reduced luciferase activity in a dose-dependent fashion | approximately 60% | effectively reduced | dropped sharply | effectively reduced | substantially reduced | synergistic | approximately 40% | no evidence of apoptosis | unable to induce caspase-3 cleavage
COc1cc(/C=C/C(=O)CC(=O)/C=C/c2ccc(O)c(OC)c2)ccc1O [curcumin, reference compound] |  |  |  |  |  |  |  |  |  | comparatively minimal impact |  |  |  | 

Source: publication PMC2843552 (Cancer research, 2010)
